{"source": "paper PMC8292404", "about": "(British Journal of Cancer, 2021)", "key": {"aHCC with MET alteration": {"test_system": "aHCC with MET alteration", "parameters": "method as in PMID 31853265", "conditions": "cited from earlier work"}, "[1]": {"test_system": "patients with sorafenib pretreated advanced hepatocellular carcinoma (aHCC)", "test": "Phase 1b dose escalation ('3 + 3'): DLTs and adverse events", "type": "in vivo", "from_the_text": "(§1) In both study phases, eligible patients were ≥18 years old with aHCC, Child–Pugh Class A liver function score, Eastern Cooperative Oncology Group performance status 0 or 1, and measurable disease defined by Response Evaluation Criteria In Solid Tumors (RECIST) v1.1. […] Exclusion criteria included any prior systemic anti-cancer treatment for aHCC (besides sorafenib) and presence of symptomatic or untreated brain metastases. Full inclusion and exclusion criteria are shown in Supplementary Table 1.\n(§2) Additional patients were enrolled at the RP2D.\n(§3) The primary endpoint in Phase 1b was incidence of dose-limiting toxicities (DLTs) during Cycle 1. Details of DLTs are defined in Supplementary Table 3. Pharmacokinetics (PK) endpoints, including Cmax, and area under the concentration–time curve over the dosing interval at steady state (AUCτ,ss), were evaluated at Cycle 1, Day 15 as a secondary endpoint in Phase 1b. Selected efficacy measures were evaluated as secondary endpoints in Phase 1b.\nIn Phase 2, the primary endpoint was progression-free survival (PFS) status after 12 weeks of treatment, as assessed by the investigator per RECIST v1.1. Secondary endpoints included TTP, time to symptomatic progression, objective response rate (ORR), disease control rate (DCR) (all investigator-assessed and per RECIST v1.1), PFS per modified RECIST v1.1 (investigator-assessed), OS and biological response (defined as a decrease in AFP >20%). As sensitivity analyses, PFS and TTP were also evaluated by independent review. Safety was assessed via reporting of adverse events (AEs), graded according to National Cancer Institute Common Terminology and Criteria for Adverse Events v4.0.\n(§4) Continuous variables, including PK data, were summarised using descriptive statistics; qualitative variables were summarised by means of counts and percentages.\nPatients who were replaced during Cycle 1 were excluded from the analysis set."}, "[2]": {"test_system": "sorafenib pretreated advanced hepatocellular carcinoma (aHCC)", "test": "Phase 1b: tumour response and survival (RECIST v1.1, investigator)", "type": "in vivo, human", "conditions": "for Best overall response CR / Best overall response Not evaluable / Best overall response PD / Best overall response PR / Best overall response SD: investigator RECIST v1.1", "from_the_text": "This was an open-label, multicentre, integrated, Phase 1b/2 trial conducted across Europe and the US in patients with aHCC who had failed sorafenib treatment.\nas §1\nIn Phase 2, patients were required to have MET overexpression, based on assessment of a tumour biopsy sample collected after sorafenib discontinuation and within 28 days before the first day of study treatment. MET overexpression was defined as moderate (2+) or strong (3+) staining for MET in ≥50% of tumour cells by immunohistochemistry (IHC) using the pharmDx anti-total MET (D1C2) rabbit monoclonal antibody (Dako, Agilent Technologies, Inc., Santa Clara, CA) (Supplementary Table 2). MET status was not required for Phase 1b, but was determined retrospectively in a biopsy sample collected within 28 days before the first day of study treatment. MET amplification status was determined for patients in Phase 1b and 2 using formalin-fixed paraffin-embedded tumour material by fluorescent in situ hybridisation. MET amplification was defined as MET:CEP7 ratio ≥2 or mean gene copy number ≥5.\nas §2, §3\nIn both phases, tumour assessments were performed per RECIST v1.1 and modified RECIST[29] v1.1 on Day 1 of every second cycle from Cycle 3 to 13, and Day 1 of every fourth cycle thereafter. Exploratory endpoints included biomarkers of MET pathway activity (including MET amplification status).\nas §4\nTumour response (best overall response, ORR, DCR) and biological response were summarised, along with corresponding two-sided exact Clopper–Pearson 90% confidence intervals (CIs). Kaplan–Meier estimates of median PFS, TTP, time to symptomatic progression and OS are presented, along with 90% CIs (calculated using the two-sided exact Clopper–Pearson method). All statistical analyses were performed using SAS® Software version 9.4 (Statistical Analysis System, SAS-Institute, Cary, North Carolina, US)."}, "[3]": {"test": "Phase 1b: pharmacokinetics at Cycle 1, Day 15", "conditions": "human, in vivo", "protocol": "as §2, §3, §4"}, "[4]": {"conditions": "moderate (Child–Pugh B) hepatic impairment relative to control patients; cited from earlier work"}, "[5]": {"conditions": "Phase 1b, 300 mg cohort (n = 4)"}, "[6]": {"conditions": "Phase 1b, 500 mg cohort (n = 13)"}}, "note": "Read-outs that look alike come from different tables or passages of the source."}
{"smiles": "CNC(=O)c1ccc(-c2cnc3ncc(Cc4ccc5ncccc5c4)n3n2)cc1F", "note": "[capmatinib]", "values": [{"measurement": "objective response", "setting": "aHCC with MET alteration; 3/10 patients, MET IHC 3+, or 2+ with MET gene copy number ≥5", "value": 30, "unit": "%"}, {"measurement": "objective response", "setting": "aHCC with MET alteration; 3/30 patients, MET H-score ≥50%, MET:CEP7 ratio ≥2 or MET gene copy number ≥5", "value": 10, "unit": "%"}]}
{"smiles": "CN1CCC(COc2cnc(-c3cccc(Cn4nc(-c5cccc(C#N)c5)ccc4=O)c3)nc2)CC1", "note": "[tepotinib]", "values": [{"measurement": "patients with at least one Grade ≥3 treatment-related AE", "setting": "[1]", "value": 23.5, "unit": "%"}, {"measurement": "patients with at least one treatment-related AE", "setting": "[1]", "value": 82.4, "unit": "%"}, {"measurement": "peripheral oedema, AE of any cause", "setting": "[1]", "value": 76.5, "unit": "%"}, {"measurement": "dose-limiting toxicities (DLTs) during Cycle 1", "setting": "[1]; 300 and 500 mg QD cohorts", "value": "no DLTs"}, {"measurement": "AEs of any cause that led to death", "setting": "[1]; N = 17", "value": 23.5, "unit": "%"}, {"measurement": "patients with Grade ≥3 events of any cause", "setting": "[1]; N = 17", "value": 58.8, "unit": "%"}, {"measurement": "permanently discontinued treatment due to AEs of any cause", "setting": "[1]; N = 17", "value": 17.6, "unit": "%"}, {"measurement": "permanently discontinued treatment due to treatment-related AEs", "setting": "[1]; N = 17 (peripheral oedema)", "value": 5.9, "unit": "%"}, {"measurement": "disease control", "setting": "[2]; [5]", "value": 50, "unit": "%"}, {"measurement": "objective responses", "setting": "[2]; [5]", "value": 50, "unit": "%"}, {"measurement": "disease control", "setting": "[2]; [6]", "value": 30.8, "unit": "%"}, {"measurement": "objective responses", "setting": "[2]; [6]", "value": 0, "unit": "%"}, {"measurement": "DCR", "setting": "[2]; Phase 1b, MET IHC 0", "value": 100.0, "unit": "%"}, {"measurement": "objective responses", "setting": "[2]; Phase 1b, MET IHC 0 (n = 1)", "value": 0, "unit": "%"}, {"measurement": "DCR", "setting": "[2]; Phase 1b, MET IHC 1+", "value": 40.0, "unit": "%"}, {"measurement": "objective responses", "setting": "[2]; Phase 1b, MET IHC 1+ (n = 5)", "value": 20, "unit": "%"}, {"measurement": "DCR", "setting": "[2]; Phase 1b, MET IHC 2+", "value": 42.9, "unit": "%"}, {"measurement": "objective responses", "setting": "[2]; Phase 1b, MET IHC 2+ (n = 7)", "value": 14.3, "unit": "%"}, {"measurement": "DCR", "setting": "[2]; Phase 1b, MET IHC 3+", "value": 0, "unit": "%"}, {"measurement": "objective responses", "setting": "[2]; Phase 1b, MET IHC 3+ (n = 2)", "value": 0.0, "unit": "%"}, {"measurement": "Median TTP", "setting": "[2]; Phase 1b, N = 17", "value": 2.1, "unit": "months"}, {"measurement": "median OS", "setting": "[2]; Phase 1b, N = 17", "value": 7.2, "unit": "months"}, {"measurement": "median PFS", "setting": "[2]; Phase 1b, N = 17", "value": 1.5, "unit": "months"}, {"measurement": "patients who had died at the time of the analysis", "setting": "[2]; Phase 1b, N = 17", "value": 82.4, "unit": "%"}, {"measurement": "patients with disease progression at the time of the analysis", "setting": "[2]; Phase 1b, N = 17", "value": 70.6, "unit": "%"}, {"measurement": "disease control", "setting": "[2]; Phase 1b, overall (N = 17)", "value": 35.3, "unit": "%"}, {"measurement": "best overall response partial response (PR)", "setting": "[2]; Phase 1b, two of 17 patients, both 300 mg", "value": 11.8, "unit": "%"}, {"measurement": "Best overall response CR", "setting": "[2]; Phase 1b 300 mg/day (n = 4)", "value": "0 n (%)"}, {"measurement": "Best overall response Not evaluable", "setting": "[2]; Phase 1b 300 mg/day (n = 4)", "value": "1 (25.0) n (%)"}, {"measurement": "Best overall response PD", "setting": "[2]; Phase 1b 300 mg/day (n = 4)", "value": "1 (25.0) n (%)"}, {"measurement": "Best overall response PR", "setting": "[2]; Phase 1b 300 mg/day (n = 4)", "value": "2 (50.0) n (%)"}, {"measurement": "Best overall response SD", "setting": "[2]; Phase 1b 300 mg/day (n = 4)", "value": "0 n (%)"}, {"measurement": "Best overall response CR", "setting": "[2]; Phase 1b 500 mg/day (n = 13)", "value": "0 n (%)"}, {"measurement": "Best overall response Not evaluable", "setting": "[2]; Phase 1b 500 mg/day (n = 13)", "value": "1 (7.7) n (%)"}, {"measurement": "Best overall response PD", "setting": "[2]; Phase 1b 500 mg/day (n = 13)", "value": "8 (61.5) n (%)"}, {"measurement": "Best overall response PR", "setting": "[2]; Phase 1b 500 mg/day (n = 13)", "value": "0 n (%)"}, {"measurement": "Best overall response SD", "setting": "[2]; Phase 1b 500 mg/day (n = 13)", "value": "4 (30.8) n (%)"}, {"measurement": "Best overall response CR", "setting": "[2]; Phase 1b Total (N = 17)", "value": "0 n (%)"}, {"measurement": "Best overall response Not evaluable", "setting": "[2]; Phase 1b Total (N = 17)", "value": "2 (11.8) n (%)"}, {"measurement": "Best overall response PD", "setting": "[2]; Phase 1b Total (N = 17)", "value": "9 (52.9) n (%)"}, {"measurement": "Best overall response PR", "setting": "[2]; Phase 1b Total (N = 17)", "value": "2 (11.8) n (%)"}, {"measurement": "Best overall response SD", "setting": "[2]; Phase 1b Total (N = 17)", "value": "4 (23.5) n (%)"}, {"measurement": "AUC", "setting": "[3]; 300 mg QD, geometric mean (geometric CV 18.2%)", "value": 15200, "unit": "ng·h/mL"}, {"measurement": "Cmax", "setting": "[3]; 300 mg QD, geometric mean (geometric CV 19.6%)", "value": 734, "unit": "ng/mL"}, {"measurement": "Cmax", "setting": "[3]; 500 mg QD, geometric mean (geometric CV 44.6%)", "value": 677, "unit": "ng/mL"}, {"measurement": "AUC", "setting": "[3]; 500 mg QD, geometric mean (geometric CV 50.4%)", "value": 12900, "unit": "ng·h/mL"}, {"measurement": "reduction in exposure, AUC from time 0 to infinity", "setting": "[4]", "value": 12, "unit": "%"}, {"measurement": "reduction in exposure, Cmax", "setting": "[4]", "value": 29, "unit": "%"}]}
